Among the data in patent publication US20210163451A1, “METHODS AND COMPOSITIONS FOR SUBSTITUTED 2,5-DIKETOPIPERAZINE ANALOGS” (University of Florida Research Foundation, Inc., priority 2018, published 2021) are IC50 and Conversion rate % values, retold here.

For one assay, the system named is radish seedlings. The experiment in a line: Herbicidal activity in radish seedling assay. Type of assay: in vivo. Particulars: total seedling length after 7 days on agar, 0 to 2 μM, mean±SD (n=4). As for the experimental part:
Established protocols were followed to quantitate thaxtomin herbicidal activity in radish seedling assay (Jiang, G. et al. Appl Environ Microbiol 2018 84:e00164-18). In brief, serial concentrations (0 to 2 μM) of thaxtomins in DMSO were added into 20 mL of 1.5% warm agar solution with gentle agitation to prepare agar plates. DMSO was included as the negative control. Radish seeds (Burpee) were surface disinfested, pregerminated and selected when the radicle was […] and just emerged from the seed coat. Six radish seedlings were equally located on the surface of each plate with root ends pointed to the same direction. Agar plates were covered, sealed with Parafilm. Seedlings in agar plates grew at room temperature under 14-16 h fluorescent light per day for 7 days, and total seedling lengths were then recorded. The longest and the shorted seedlings would be excluded from the data analysis. Percent inhibition relative to the mean growth response in negative control was then calculated. Dose-response curves were fit to a four-parameter logistic model, and I50 values were determined from these curves.

For assay [1], the system named is TB14, TCB14, TxtA and TxtB. The experiment in a line: Conversion to thaxtomin A analogues in the reactions of TB14, TCB14, TxtA and TxtB. It counts as biochemical. The conditions noted are these: thaxtomin A analogue product from the listed L-Phe and L-Trp analogues.
In a further assay the test system is TB14, TxtA and TxtB. The experiment in a line: Conversion to nitro-DKPs in the reactions of TB14, TxtA and TxtB. Type of assay: biochemical. The conditions noted are these: nitro-DKP product from the listed L-Phe and L-Trp analogues.

Consider `CN1C(=O)[C@](O)(Cc2cccc(O)c2)N(C)C(=O)[C@@H]1Cc1c[nH]c2cccc([N+](=O)[O-])c12` [Compound 1, thaxtomin A, reference compound], for which the half-inhibitory concentration (IC50) (in general, the midpoint of a concentration-inhibition curve) with radish seedlings is 390 ± 30 nM. For the same compound, in assay [1], the Conversion rate % came out at 6.84%.

The compound `Cc1ccc(C[C@H]2C(=O)N(C)[C@@H](Cc3c[nH]c4cccc([N+](=O)[O-])c34)C(=O)N2C)cc1` [compound 54] came in with a Conversion rate % in the assay on TB14, TxtA and TxtB of 15.69%.
